Results from ChEMBL document CHEMBL1287678, “5-{2-[4-(2-methyl-5-quinolinyl)-1-piperazinyl]ethyl}-2(1H)-quinolinones and 3,4-dihydro-2(1H)-quinolinones: dual-acting 5-HT1 receptor antagonists and serotonin reuptake inhibitors. Part 3” (Bioorg Med Chem Lett, 2010).

Experiments:
[1] = biological target: T1, 5-hydroxytryptamine receptor 1A (Homo sapiens, UniProt P08908); assay: Antagonist activity at human 5-HT1A receptor expressed in HEK293 cells assessed as inhibition of GTPgammaS binding by scintillation proximity assay; assay type: functional, cell-based
T1 sequence (P08908 whole entry): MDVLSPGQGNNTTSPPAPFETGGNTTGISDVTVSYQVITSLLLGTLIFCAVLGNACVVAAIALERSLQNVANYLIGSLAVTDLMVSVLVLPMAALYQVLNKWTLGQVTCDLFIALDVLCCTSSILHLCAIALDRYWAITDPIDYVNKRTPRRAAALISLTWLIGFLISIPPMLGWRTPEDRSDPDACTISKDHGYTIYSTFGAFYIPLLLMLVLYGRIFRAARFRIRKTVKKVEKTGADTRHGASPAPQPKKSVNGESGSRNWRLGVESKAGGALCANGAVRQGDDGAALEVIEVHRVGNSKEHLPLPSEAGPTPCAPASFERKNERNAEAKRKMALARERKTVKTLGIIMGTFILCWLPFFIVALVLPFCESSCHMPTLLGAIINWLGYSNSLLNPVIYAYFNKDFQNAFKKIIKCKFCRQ

[2] = biological target: T2, 5-hydroxytryptamine receptor 1A (Homo sapiens) (UniProt P08908); assay: Intrinsic activity at human 5-HT1A receptor expressed in HEK293 cells assessed as effect on GTPgammaS binding by scintillation proximity assay relative to 5HT; assay type: functional, cell-based
T2 sequence (whole entry): T1 sequence (P08908 whole entry)

[3] = biological target: Sodium-dependent serotonin transporter (Homo sapiens, UniProt P31645); assay: Displacement of [3H]-citalopram in human SERT expressed in LLCPK cells by filtration assay; assay type: cell-based
Sodium-dependent serotonin transporter, sequence (P31645 whole entry): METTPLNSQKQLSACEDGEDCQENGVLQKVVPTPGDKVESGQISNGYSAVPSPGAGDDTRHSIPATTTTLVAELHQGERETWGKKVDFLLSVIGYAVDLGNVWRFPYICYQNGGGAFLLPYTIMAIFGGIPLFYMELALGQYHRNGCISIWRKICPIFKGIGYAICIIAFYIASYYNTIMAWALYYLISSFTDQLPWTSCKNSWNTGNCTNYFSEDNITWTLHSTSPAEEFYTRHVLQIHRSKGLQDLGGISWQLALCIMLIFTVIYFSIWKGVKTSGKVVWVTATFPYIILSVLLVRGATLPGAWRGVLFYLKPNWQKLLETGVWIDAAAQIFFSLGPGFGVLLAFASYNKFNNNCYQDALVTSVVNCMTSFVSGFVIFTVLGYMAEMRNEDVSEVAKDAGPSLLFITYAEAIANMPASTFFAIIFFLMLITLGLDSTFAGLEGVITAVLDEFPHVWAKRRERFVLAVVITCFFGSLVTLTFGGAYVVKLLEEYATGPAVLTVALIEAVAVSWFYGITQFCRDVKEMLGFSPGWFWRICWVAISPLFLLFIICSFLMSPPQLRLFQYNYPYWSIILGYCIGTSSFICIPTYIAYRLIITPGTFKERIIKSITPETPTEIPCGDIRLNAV

[4] = biological target: T3, 5-hydroxytryptamine receptor 1D (Homo sapiens, UniProt P28221); assay: Antagonist activity at human 5-HT1D receptor expressed in CHO cells assessed as inhibition of GTPgammaS binding by scintillation proximity assay; assay type: functional, cell-based
T3 sequence (P28221 whole entry): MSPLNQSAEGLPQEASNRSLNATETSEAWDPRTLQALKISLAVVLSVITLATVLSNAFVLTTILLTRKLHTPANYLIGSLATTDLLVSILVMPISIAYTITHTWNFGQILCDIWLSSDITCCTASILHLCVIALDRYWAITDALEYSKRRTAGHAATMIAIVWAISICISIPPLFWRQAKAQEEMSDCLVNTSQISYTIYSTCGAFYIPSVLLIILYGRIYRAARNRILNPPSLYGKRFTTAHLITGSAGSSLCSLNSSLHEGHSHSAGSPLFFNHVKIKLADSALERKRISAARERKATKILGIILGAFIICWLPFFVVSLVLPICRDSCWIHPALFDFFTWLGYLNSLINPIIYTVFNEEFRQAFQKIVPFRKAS

[5] = biological target: T4, 5-hydroxytryptamine receptor 1B (Homo sapiens, UniProt P28222); assay: Antagonist activity at human 5-HT1B receptor expressed in CHO cells assessed as inhibition of GTPgammaS binding by scintillation proximity assay; assay type: functional, cell-based
T4 sequence (P28222 whole entry): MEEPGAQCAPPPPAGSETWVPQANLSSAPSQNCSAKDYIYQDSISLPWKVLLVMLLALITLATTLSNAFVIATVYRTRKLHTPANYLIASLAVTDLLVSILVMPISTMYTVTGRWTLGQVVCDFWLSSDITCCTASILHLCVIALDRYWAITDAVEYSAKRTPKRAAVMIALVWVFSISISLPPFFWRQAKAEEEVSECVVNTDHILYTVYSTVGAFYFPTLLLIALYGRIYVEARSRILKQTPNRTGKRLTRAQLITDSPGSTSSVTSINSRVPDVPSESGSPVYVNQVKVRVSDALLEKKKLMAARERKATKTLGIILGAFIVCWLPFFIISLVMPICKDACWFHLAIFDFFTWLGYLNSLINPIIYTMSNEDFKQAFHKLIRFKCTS

[6] = Blood clearance in rat at 0.5 mg/kg, iv and 1 mg/kg, po; assay type: ADME, organism-based; conditions: whole blood
[7] = biological target: T3, 5-hydroxytryptamine receptor 1D; assay: Intrinsic activity at human 5-HT1D receptor expressed in CHO cells assessed as effect on GTPgammaS binding by scintillation proximity assay relative to 5HT; assay type: functional, cell-based
[8] = Volume of distribution at steady state in rat at 0.5 mg/kg, iv and 1 mg/kg, po; assay type: ADME, organism-based; conditions: in vivo, read-out: Vdss
[9] = Half life in rat at 0.5 mg/kg, iv and 1 mg/kg, po; assay type: ADME, organism-based; conditions: in vivo
[10] = Oral bioavailability in rat at 1 mg/kg; assay type: ADME, organism-based; conditions: in vivo
[11] = Ratio of drug level in brain to blood in rat at 0.5 mg/kg, iv and 1 mg/kg, po; assay type: ADME, organism-based; conditions: brain / whole blood
[12] = biological target: T4, 5-hydroxytryptamine receptor 1B; assay: Intrinsic activity at human 5-HT1B receptor expressed in CHO cells assessed as effect on GTPgammaS binding by scintillation proximity assay relative to 5HT; assay type: functional, cell-based
[13] = biological target: Voltage-gated inwardly rectifying potassium channel KCNH2 (Homo sapiens, UniProt Q12809); assay: Displacement of [3H]-dofetilide in human hERG expressed in CHO cells by proximity assay; assay type: cell-based
Voltage-gated inwardly rectifying potassium channel KCNH2, sequence (Q12809 whole entry): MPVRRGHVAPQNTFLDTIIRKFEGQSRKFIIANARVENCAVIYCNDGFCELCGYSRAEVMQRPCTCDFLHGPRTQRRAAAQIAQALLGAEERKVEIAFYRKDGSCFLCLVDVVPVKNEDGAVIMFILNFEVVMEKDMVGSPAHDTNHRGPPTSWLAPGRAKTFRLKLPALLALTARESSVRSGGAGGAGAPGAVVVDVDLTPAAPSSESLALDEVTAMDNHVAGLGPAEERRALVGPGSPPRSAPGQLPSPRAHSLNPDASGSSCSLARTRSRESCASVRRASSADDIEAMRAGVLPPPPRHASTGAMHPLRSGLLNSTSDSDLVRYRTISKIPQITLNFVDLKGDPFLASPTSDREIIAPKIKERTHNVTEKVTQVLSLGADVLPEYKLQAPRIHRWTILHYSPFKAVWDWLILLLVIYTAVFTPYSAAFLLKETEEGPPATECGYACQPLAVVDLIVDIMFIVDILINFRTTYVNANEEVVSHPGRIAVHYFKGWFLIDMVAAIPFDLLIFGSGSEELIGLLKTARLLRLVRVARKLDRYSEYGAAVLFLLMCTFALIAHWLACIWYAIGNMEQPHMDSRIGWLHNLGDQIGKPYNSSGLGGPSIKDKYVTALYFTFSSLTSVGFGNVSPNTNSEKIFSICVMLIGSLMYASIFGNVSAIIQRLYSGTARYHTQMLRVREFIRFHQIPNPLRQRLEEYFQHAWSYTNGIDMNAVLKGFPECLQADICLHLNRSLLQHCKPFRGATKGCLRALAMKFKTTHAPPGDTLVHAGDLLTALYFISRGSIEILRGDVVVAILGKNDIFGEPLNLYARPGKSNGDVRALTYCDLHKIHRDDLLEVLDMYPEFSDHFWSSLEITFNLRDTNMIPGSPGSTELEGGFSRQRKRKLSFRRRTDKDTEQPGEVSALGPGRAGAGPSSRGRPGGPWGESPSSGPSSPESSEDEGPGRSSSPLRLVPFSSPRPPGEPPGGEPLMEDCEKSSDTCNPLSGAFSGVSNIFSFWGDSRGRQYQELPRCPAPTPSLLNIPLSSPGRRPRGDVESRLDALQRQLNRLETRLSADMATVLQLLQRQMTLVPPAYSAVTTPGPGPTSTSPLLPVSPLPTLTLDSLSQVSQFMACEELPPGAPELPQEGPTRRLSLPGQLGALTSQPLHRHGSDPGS

[14] = test system: Liver microsomes; assay: Intrinsic clearance in human liver microsomes; assay type: ADME, Microsome
[15] = biological target: T4, 5-hydroxytryptamine receptor 1B; assay: Agonist activity at human 5-HT1B receptor expressed in CHO cells assessed as stimulation of GTPgammaS binding by scintillation proximity assay; assay type: functional, cell-based
[16] = biological target: T3, 5-hydroxytryptamine receptor 1D; assay: Agonist activity at human 5-HT1D receptor expressed in CHO cells assessed as stimulation of GTPgammaS binding by scintillation proximity assay; assay type: functional, cell-based
[17] = biological target: T1, 5-hydroxytryptamine receptor 1A; assay: Agonist activity at human 5-HT1A receptor expressed in HEK293 cells assessed as stimulation of GTPgammaS binding by scintillation proximity assay; assay type: functional, cell-based

Compound	Ki [1] [nM]	Intrinsic activity [2]	Ki [3] [nM]	Ki [4] [nM]	Ki [5] [nM]	clearance [6] [mL/min/kg]	Intrinsic activity [7]	Vd [8] [L/kg]	half-life [9] [h]	bioavailability [10] [%]	Kp [11]	Intrinsic activity [12]	CL [14] [mL/min/g]	EC50 [15] [nM]	EC50 [16] [nM]	EC50 [17] [nM]	Ki [13] [nM]
Cc1ccc2c(N3CCN(CCc4c(F)ccc5c4ccc(=O)n5C)CC3)cccc2n1	0.398	0	12.6	0.398	31.6		0					0					31600
Cc1ccc2c(N3CCN(CCc4c(C)ccc5c4ccc(=O)n5C)CC3)cccc2n1	0.631	0	12.6	2		28	0	2.3	1.1	88	0.5	0.4	1.5	63.1			3980
Cc1ccc2c(N3CCN(CCc4cccc5[nH]c(=O)ccc45)CC3)cccc2n1		0					0					0					
Cc1ccc2c(N3CCN(CCc4c(C)ccc5c4CCC(=O)N5)CC3)cccc2n1	0.794	0.3	50.1			7	0.5	3	5.4	73	0.8	0.4	< 0.5	200	5.01		3980
Cc1ccc2c(N3CCN(CCc4c(C)ccc5c4CCC(=O)N5C)CC3)cccc2n1	0.631	0	25.1	1		9	0	2	3	83	0.4	0.4	1.3	398			794
Cc1ccc2c(N3CCN(CCc4cccc5c4OCC(=O)N5)CC3)cccc2n1													1				
Cc1ccc2c(N3CCN(CCc4cccc5c4ccc(=O)n5C)C(C)(C)C3)cccc2n1	1.58	0.3		0.501	0.501	34	0	0.8	0.6	27	1.1		3.8				
Cc1ccc2c(N3CCN(CCc4c(C)ccc5[nH]c(=O)ccc45)CC3)cccc2n1	1	0	100				0					0.4		501			
Cc1ccc2c(N3CCN(CCc4cccc5c4CCC(=O)N5)CC3)cccc2n1		0					0					0					
Cc1ccc2c(N3CCN(CCc4c(Cl)ccc5c4ccc(=O)n5C)CC3)cccc2n1	3.98	0	15.8	3.98			0					0.5		316			
Cc1ccc2c(N3CCN(CCc4cccc5c4OCC(=O)N5C)CC3)cccc2n1													2.4				
Cc1ccc2c(N3CCN(CCc4cccc5c4CCC(=O)N5C)CC3)cccc2n1	0.631	0	12.6	0.0794	0.794		0					0					3980
Cc1ccc2c(N3CCN(CCc4c(C)ccc5c4ccc(=O)n5C)CC3)cc(F)cc2n1	1.26	0	10	2	> 1000	46	0	2.4	0.7	82			1.6				2510
Cc1ccc2c(N3CCN(CCc4c(C)ccc5c4ccc(=O)n5C)[C@H](C)C3)cccc2n1	1.26	0	3.98	2.51	> 1000	21	0	2.1	1.5	31	0.4		1.2				7940

Now from value to compound, other results behind:

Ki [1] [nM]	Intrinsic activity [2]	Ki [3] [nM]	Ki [4] [nM]	Ki [5] [nM]	clearance [6] [mL/min/kg]	Intrinsic activity [7]	Vd [8] [L/kg]	half-life [9] [h]	bioavailability [10] [%]	Kp [11]	Intrinsic activity [12]	CL [14] [mL/min/g]	EC50 [15] [nM]	EC50 [16] [nM]	EC50 [17] [nM]	Compound	Ki [13] [nM]
3.98	0	1	> 1000	> 1000												Cc1ccc2c(N3CCN(CCc4c(C)ccc5c4ccc(=O)n5C)[C@@H](C)C3)cc(F)cc2n1	
1	0	0.501	1.26	316	34	0	2	1.6	34	1.2	0	0.8				Cc1ccc2c(N3CCN(CCc4cccc5c4ccc(=O)n5C)[C@@H](C)C3)cc(F)cc2n1	6310
3.16	0	2.51	5.01	398	32	0	1.2	0.6	12	1.3	0	1.5				Cc1ccc2c(N3CCN(CCc4cccc5c4ccc(=O)n5C)[C@@H](C)C3)cccc2n1	5010
3.98	0	0.501	20	> 1000	46	0	2.7	1.2	35	1.7		< 0.5				Cc1ccc2c(N3CCN(CCc4c(C)ccc5c4ccc(=O)n5C)[C@@H](C)C3)cccc2n1	1580
1.26	0	1.26	39.8	> 1000	31	0	3.4	1.4	82	0.8		0.9				Cc1ccc2c(C3CCN(CCc4c(C)ccc5c4ccc(=O)n5C)CC3)cccc2n1	2000
1	0	0.501	0.126	0.794		0					0					Cc1ccc2c(N3CCN(CCc4cccc5c4ccc(=O)n5C)[C@H](C)C3)cc(F)cc2n1	10000
	0.4	2.51		0.794	32	0.7	2.1	1.3	37	1.1	0	1.2		1	0.0316	Cc1ccc2c(N3CCN(CCc4cccc5c4ccc(=O)n5C)CC3)cccc2n1	10000
